Test results: patent US8778975B2, “Helicobacter pylori eradicating agent having inhibitory activity on gastric acid secretion” (Link Geonomics, Inc., priority 2006, dated 2014)
In brackets after ≈: the same amount, converted by molar mass. Like-named read-outs stand apart in the source and are kept apart here.

How the values were obtained:
[1] = system: Escherichia coli (ATCC 10536); test: Antibacterial test (MIC), Gram-negative bacteria; format: cell-based
Source text: (§1) As for the Gram-negative bacteria, E. coli (ATCC 10536, ATCC 25922), Klebsiella pneumonia (ATCC 10031), Proteus vulgaris (ATCC 13315), Pseudomonas aeruginosa (ATCC 9027), and Salmonella typhimurium (ATCC 13311) were used, and as for the Gram-positive bacteria, Staphylococcus aureus, MRSA (ATCC 33591), Staphylococcus epidermidis (ATCC 12228), Streptococcus pneumonia (ATCC 6301), Mycobacterium ranae (ATCC 110), and Enterococcus faecalis (VRE, ATCC 51575) were used. The various bacteria were cultured at 37° C. for 20 to 48 hours by conventional methods, and the minimum growth inhibitory concentration (MIC, μg/ml) was determined. Each of the specimens was dissolved in a 1% DMSO solution. Furthermore, amoxicillin, clarithromycin and gentamycin were used as control drugs of antibacterial substance.

[2] = system: Escherichia coli (ATCC 25922); test: Antibacterial test (MIC), Gram-negative bacteria; format: cell-based
Source text: as §1

[3] = system: Klebsiella pneumonia (ATCC 10031); test: Antibacterial test (MIC), Gram-negative bacteria; format: cell-based
Source text: as §1

[4] = system: Proteus vulgaris (ATCC 13315); test: Antibacterial test (MIC), Gram-negative bacteria; format: cell-based
Source text: as §1

[5] = system: Pseudomonas aeruginosa (ATCC 9027); test: Antibacterial test (MIC), Gram-negative bacteria; format: cell-based
Source text: as §1

[6] = system: Salmonella typhimurium (ATCC 13311); test: Antibacterial test (MIC), Gram-negative bacteria; format: cell-based
Source text: as §1

[7] = system: Mycobacterium ranae (ATCC 110); test: Antibacterial test (MIC), Gram-positive bacteria; format: cell-based
Source text: as §1

[8] = system: Staphylococcus aureus, MRSA (ATCC 33591); test: Antibacterial test (MIC), Gram-positive bacteria; format: cell-based
Source text: as §1

[9] = system: Staphylococcus epidermidis (ATCC 12228); test: Antibacterial test (MIC), Gram-positive bacteria; format: cell-based
Source text: as §1

[10] = system: Helicobacter pylori standard strains ATCC 43504, ATCC 43629, ATCC 43570 and clinically separated strains; test: Anti-Helicobacter pylori activity (MIC), standard and clinically separated strains, Pharmacological Test Example 2; format: cell-based
Procedure: For the bacterium Helicobacter pylori, standard strains ATCC 43504, ATCC 43629 and ATCC 43570 were used to perform in vitro tests in Columbia agar medium. The bacteria were cultured at 37° C. and pH 7.0 for 3 days. On the 4th day, the minimum growth inhibitory concentration (MIC, μg/ml) was determined. Each of the specimens was dissolved in a 1% DMSO solution. Furthermore, amoxicillin and clarithromycin were used as control drugs of antibacterial substance. Further, the compound described in the article of Thomas C. Kuehler (J. Med.

[11] = system: clinically separated clarithromycin-resistant strains and amoxicillin-insensitive strains of Helicobacter pylori; test: Antibacterial potency (MIC) against clarithromycin-resistant and amoxicillin-insensitive strains, Pharmacological Test Example 3; format: cell-based
Procedure: A test was conducted on the antibacterial potency of the compounds of the present invention against the clarithromycin-resistant strains and amoxicillin-insensitive strains of the bacterium Helicobacter pylori.
A test was conducted on the antibacterial potency of the compounds of the present invention, using clinically separated clarithromycin-resistant strains and amoxicillin-insensitive strains of the bacterium Helicobacter pylori. For the respective strains, in vitro tests were performed in Columbia agar medium. Each of the specimens was dissolved in a 1% DMSO solution. The bacteria were cultured at 37° C. and pH 7.0 for 3 days, and on the 4th day, the minimum growth inhibitory concentration (MIC, μg/ml) was determined.

[12] = system: Enterococcus faecalis (VRE, ATCC 51575); test: Antibacterial test (MIC), Gram-positive bacteria; format: cell-based
Source text: as §1

[13] = system: Streptococcus pneumonia (ATCC 6301); test: Antibacterial test (MIC), Gram-positive bacteria; format: cell-based; conditions: Streptococcus pneumoniae, ATCC6301
Source text: as §1

[14] = system: Helicobacter pylori bacteria (ATCC 43504); test: Antiulcer action and bacteria eradicating action in Helicobacter pylori-infected Mongolian gerbils; format: in vivo; conditions: for Number of Bacteria (average) (log CFU): gastric mucosa
Procedure: Mongolian gerbils were experimentally infected with Helicobacter pylori bacteria, and the antiulcer action and the Helicobacter pylori bacteria eradicating action of the compounds of the present invention were tested.
Male Mongolian gerbils (30 to 40 g), five animals in each group, were orally inoculated with Helicobacter pylori bacteria (ATCC 43504) at 1.6×10^7 CFU/0.5 ml/mouse, and bred for one week, and then drug was administered two times a day for two weeks. Thereafter, the […] were bred for three weeks, and then the rats were fasted for 18 hours and subjected to abdominal section, followed by autopsy. The severity of gastric ulcer, the number of Helicobacter pylori bacteria in the gastric mucosa, and the antibody titer were measured.

[15] = Clinically separated strain PT1045482
[16] = Clinically separated strain PT1045483
[17] = Clinically separated strain PT1045484
[18] = Helicobacter pylori, AMO-insensitive strain NO. 4, read-out: MIC
[19] = Helicobacter pylori, CAM-resistant strain NO. 1, read-out: MIC
[20] = Helicobacter pylori, CAM-resistant strain NO. 2, read-out: MIC
[21] = Helicobacter pylori, CAM-resistant strain NO. 3, read-out: MIC
[22] = Helicobacter pylori, CAM-resistant strain NO. 4, read-out: MIC
[23] = Salmonella enterica, read-out: MIC

Gentamycin [GEM]
MIC [1]: 0.3 µg/mL | MIC [2]: 1.0 µg/mL | MIC [3]: 1.0 µg/mL | MIC [4]: 0.3 µg/mL | MIC [5]: 0.3 µg/mL | MIC [6]: 1.0 µg/mL | MIC [7]: 0.3 µg/mL | MIC [8]: 1.0 µg/mL | MIC [9]: 0.1 µg/mL

CC1(C)S[C@@H]2[C@H](NC(=O)[C@H](N)c3ccc(O)cc3)C(=O)N2[C@H]1C(=O)O [AMPC, Amoxicillin]
MIC [10, 15]: 0.06 µg/mL (≈ 0.164 µM) | MIC [10, 16]: 0.06 µg/mL (≈ 0.164 µM) | MIC [10, 17]: 0.06 µg/mL (≈ 0.164 µM) | MIC ([10]; Standard strain ATCC 43504): 0.06 µg/mL (≈ 0.164 µM) | MIC ([10]; Standard strain ATCC 43570): < 0.015 µg/mL | MIC ([10]; Standard strain ATCC 43629): 0.06 µg/mL (≈ 0.164 µM) | MIC ([11]; AMO-insensitive strain NO. 2): 0.25 µg/mL (≈ 0.684 µM) | MIC ([11]; AMO-insensitive strain NO. 3): 0.25 µg/mL (≈ 0.684 µM) | MIC ([11]; Helicobacter pylori): 0.25 µg/mL (≈ 0.684 µM) | MIC [11, 18]: 0.12 µg/mL (≈ 0.328 µM) | MIC [11, 19]: < 0.015 µg/mL | MIC [11, 20]: < 0.015 µg/mL | MIC [11, 21]: < 0.015 µg/mL | MIC [11, 22]: < 0.015 µg/mL | MIC ([1]; ATCC10536, read-out: MIC): 6.25 µg/mL (≈ 17.1 µM) | MIC ([2]; ATCC25922, read-out: MIC): 6.25 µg/mL (≈ 17.1 µM) | MIC ([4]; ATCC13315, read-out: MIC): 6.25 µg/mL (≈ 17.1 µM) | MIC ([5]; ATCC9027, read-out: MIC): > 100 µg/mL | MIC [6, 23]: 0.3 µg/mL (≈ 0.821 µM) | MIC [12]: 0.3 µg/mL (≈ 0.821 µM) | MIC ([8]; read-out: MIC): 0.1 µg/mL (≈ 0.274 µM) | MIC [13]: 0.01 µg/mL (≈ 0.0274 µM) | Antibody titer (average) ([14]; 10 mg/kg): 0.40 | Number of Bacteria (average) (log CFU) ([14]; 10 mg/kg): 5.0 log CFU | Number of Ulcers discovered ([14]; 10 mg/kg, two times a day for two weeks): 4/5 | responders at 10 mg/kg ([14]; Helicobacter pylori, ATCC43504, 336 h, 10 mg/kg, two times a day for two weeks, read-out: Eradication rate (%)): 20%

CC[C@H]1OC(=O)[C@H](C)[C@@H](O[C@H]2C[C@@](C)(OC)[C@@H](O)[C@H](C)O2)[C@H](C)[C@@H](O[C@@H]2O[C@H](C)C[C@H](N(C)C)[C@H]2O)[C@](C)(OC)C[C@@H](C)C(=O)[C@H](C)[C@@H](O)[C@]1(C)O [CAM, Clarithromycin]
MIC [10, 15]: 0.3 µg/mL (≈ 0.401 µM) | MIC [10, 16]: 0.3 µg/mL (≈ 0.401 µM) | MIC [10, 17]: 0.3 µg/mL (≈ 0.401 µM) | MIC ([10]; Standard strain ATCC 43504): 0.1 µg/mL (≈ 0.134 µM) | MIC ([10]; Standard strain ATCC 43570): < 0.015 µg/mL | MIC ([10]; Standard strain ATCC 43629): 0.1 µg/mL (≈ 0.134 µM) | MIC ([11]; Helicobacter pylori, AMO-insensitive strain NO. 1, read-out: MIC): 0.06 µg/mL (≈ 0.0802 µM) | MIC ([11]; Helicobacter pylori, AMO-insensitive strain NO. 2, read-out: MIC): 0.03 µg/mL (≈ 0.0401 µM) | MIC ([11]; Helicobacter pylori, AMO-insensitive strain NO. 3, read-out: MIC): 0.06 µg/mL (≈ 0.0802 µM) | MIC [11, 18]: 0.03 µg/mL (≈ 0.0401 µM) | MIC [11, 19]: 32 µg/mL (≈ 42.8 µM) | MIC [11, 20]: 8 µg/mL (≈ 10.7 µM) | MIC [11, 21]: 64 µg/mL (≈ 85.6 µM) | MIC [11, 22]: 32 µg/mL (≈ 42.8 µM) | MIC ([1]; ATCC10536, read-out: MIC): 50 µg/mL (≈ 66.8 µM) | MIC ([2]; ATCC25922, read-out: MIC): 50 µg/mL (≈ 66.8 µM) | MIC ([4]; ATCC13315, read-out: MIC): 100 µg/mL (≈ 134 µM) | MIC ([5]; ATCC9027, read-out: MIC): > 100 µg/mL | MIC [6, 23]: 25 µg/mL (≈ 33.4 µM) | MIC [12]: 0.1 µg/mL (≈ 0.134 µM) | MIC ([8]; read-out: MIC): 0.1 µg/mL (≈ 0.134 µM) | MIC [13]: 0.02 µg/mL (≈ 0.0267 µM) | Antibody titer (average) ([14]; 30 mg/kg): 0.35 | Number of Bacteria (average) (log CFU) ([14]; 30 mg/kg): 5.2 log CFU | Number of Ulcers discovered ([14]; 30 mg/kg, two times a day for two weeks): 4/5 | responders at 30 mg/kg ([14]; Helicobacter pylori, ATCC43504, 336 h, 30 mg/kg, two times a day for two weeks, read-out: Eradication rate (%)): 20%
